Assay [1] concerns T1, Plasmodium falciparum Dd2-attB (parental line), asexual blood stages.
T1 construct: Dd2-attB, the isogenic parental line
Put plainly: microbe, parasite or virus in culture. Set-up: replicate k of 3 (each line is one of three independent assays; the three lines of one compound and parasite line follow each other). To be noted: n = 1; for Individual replicates / Log AC50 (M): 72 h; for AC50: Plasmodium falciparum, DD2, 72 h, read-out: Individual replicates / Log AC50 (converted). The method in brief: (§1)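 Three independent runs, compound subset only; parental vs ScDHODH line compared by two-sided Student's t-test.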

Assay [2] has as its system T2, Plasmodium falciparum Dd2-attB-ScDHODH (transgenic line expressing yeast DHODH), asexual blood stages.
T2 construct: Dd2-attB-ScDHODH, the transgenic line that expresses yeast DHODH
Put plainly: organism not typed. Also noted: replicate k of 3 (each line is one of three independent assays; the three lines of one compound and parasite line follow each other). An outline of the steps:
as §1

Assay [3] has as its system T1, Plasmodium falciparum Dd2-attB (parental line), asexual blood stages. Put plainly: microbe, parasite or virus in culture. To be noted: 72 h; for Calculated / Average Log AC50 (M): mean of replicates, inhibitor; for AC50: Plasmodium falciparum, DD2, Erythrocyte. Also noted: species or system P. falciparum Dd2-attB in human erythrocytes; SYBR Green-I proliferation assay, Dd2-attB parental line, asexual blood stages.

[4] abbreviates: 72 h; n = 1; read-out: Individual replicates / Log AC50 (converted).
The mark [5] stands for this setting: read-out: Calculated / Average Log AC50 (M), mean of replicates, 72 h (converted).

Each structure is given as a SMILES string. Values joined by “and” are separate entries in the source; they are usually repeats but may differ in a detail not shown here. Equal entries are not always repeated. Where two headings read alike, the source gives them in different places.

The source of these data is publication PMC7822874, “Chemoprotective antimalarials identified through quantitative high-throughput screening of Plasmodium blood and liver stage parasites” (Scientific Reports, 2021).

In the case of `O=C(O)CCNc1cc(N2CCc3ccccc3CC2)nc(-c2cccnc2)n1` [NCGC00351549-02], in assay [1], the “Individual replicates / Log AC50 (M)” value was -4.9986 Log AC50 (M) and -4.8486 Log AC50 (M); the AC50 is 14.2 µM. Further, the “Individual replicates / Log AC50 (M)” value in assay [2] (72 h, n = 1) is -4.8486 Log AC50 (M) (2×) and -4.7986 Log AC50 (M). Further, the “Calculated / Average Log AC50 (M)” value in assay [3] was -4.8986 M.
In the case of `CCNC(=O)Oc1cc(-c2cccc(C(=O)NCCCc3ccccc3)c2)cc2cccnc12` [NCGC00372508-01], the “Individual replicates / Log AC50 (M)” value is -5.1986 Log AC50 (M) and -4.7486 Log AC50 (M) and -5.0986 Log AC50 (M) in assay [1]; -5.0486 Log AC50 (M) in assay [2] (72 h, n = 1). Further, the values for the AC50 in assay [2] (setting [4]) and in assay [3] (read-out: Calculated / Average Log AC50 (M) (converted)) were 6.33 µM and 9.65e-06 M, respectively.
With `NC(=O)c1ccc(O)c2ncccc12` [NCGC00184888-01], the AC50 in assay [1] is 14.2 µM; in assay [2] (setting [4]) it was 20 µM; in assay [3] (setting [5]), 1.59e-05 M.
On to `CCOC(=O)c1ccnc(-c2ncn(C)c2-c2ccc(OC)cc2)c1` [NCGC00409816-01], for which the “Individual replicates / Log AC50 (M)” value in assay [1] was -5.1986 Log AC50 (M) and -4.8486 Log AC50 (M) and -5.0986 Log AC50 (M); in assay [2] (72 h, n = 1) it was -4.9486 Log AC50 (M) and -4.7986 Log AC50 (M). Moreover, the AC50 in assay [2] (setting [4]) is 7.97 µM; in assay [3] (setting [5]) it was 8.94e-06 M.
For the compound `O=C(Nc1ccc(O)c2ncccc12)c1ccccc1F` [NCGC00184884-01], the “Individual replicates / Log AC50 (M)” value in assay [1] was -5.2486 Log AC50 (M) and -4.9486 Log AC50 (M); in assay [2] (72 h, n = 1), -4.8486 Log AC50 (M) and -5.0986 Log AC50 (M). The AC50 in assay [1] was 6.33 µM; in assay [3] (setting [5]) it was 7.38e-06 M.
Consider `O=C(O)c1ccnc(-n2ncc(C(OCCN3CCCCC3)c3ccccc3Cl)c2-c2cccc(-c3ccccc3)c2)c1` (stereo not drawn) [NCGC00481639-01], for which the “Individual replicates / Log AC50 (M)” value in assay [1] is -5.3986 Log AC50 (M) and -5.5986 Log AC50 (M); in assay [2] (72 h, n = 1) it was -4.9986 Log AC50 (M) and -5.1486 Log AC50 (M). The “Calculated / Average Log AC50 (M)” value in assay [3] is given as -5.482 M.
With `Oc1ccc(CNc2ccccc2F)c2cccnc12` [NCGC00031503-02], the “Individual replicates / Log AC50 (M)” value was -4.9986 Log AC50 (M) in assay [1]; -4.7486 Log AC50 (M) and -4.7986 Log AC50 (M) in assay [2] (72 h, n = 1). In addition, the results for the AC50 in assay [1], in assay [2] (setting [4]) and in assay [3] (setting [5]) were 17.8 µM, 20 µM and 1.22e-05 M, respectively.
For `CCOC(=O)c1ccc(O)c2ncc(N3CCC(C(=N)N)CC3)cc12` [NCGC00241051-01], the “Individual replicates / Log AC50 (M)” value was -5.1486 Log AC50 (M) in assay [1]; -4.7486 Log AC50 (M) and -4.8986 Log AC50 (M) in assay [2] (72 h, n = 1). The AC50 in assay [1] was 12.6 µM; in assay [3] (setting [5]), 1.08e-05 M.
Turning to `Oc1ccc(CNc2nccc3ccccc23)c2cccnc12` [NCGC00241025-01], the “Individual replicates / Log AC50 (M)” value in assay [1] is -5.2486 Log AC50 (M) and -4.8986 Log AC50 (M) and -5.1986 Log AC50 (M); in assay [2] (72 h, n = 1), -5.2486 Log AC50 (M) and -4.7486 Log AC50 (M). The AC50 in assay [3] (setting [5]) is 7.67e-06 M.
Consider `O=C1c2ccccc2C(=O)C1c1ccc(C(F)(F)F)cc1` [NCGC00510065-01], for which the “Individual replicates / Log AC50 (M)” value is -4.7486 Log AC50 (M) (2×) and -5.0986 Log AC50 (M) in assay [1]; -4.6986 Log AC50 (M) and -4.7486 Log AC50 (M) in assay [2] (72 h, n = 1). For the same compound, the figures for the AC50 in assay [2] (setting [4]) and in assay [3] (setting [5]) were 17.8 µM and 1.36e-05 M, respectively.
Consider `O=C(O)c1ccc(O)c2ncc(N3CCCN(CCc4cccc5ccccc45)CC3)cc12` [NCGC00247751-02], for which the “Individual replicates / Log AC50 (M)” value in assay [1] was -5.1486 Log AC50 (M); in assay [2] (72 h, n = 1) it was -5.2486 Log AC50 (M) and -4.7486 Log AC50 (M). For the same compound, the values for the AC50 in assay [1] and in assay [3] (setting [5]) were 6.33 µM and 9.65e-06 M, respectively.
On to `CN1CCN(C(=O)c2ccc(-c3cc(O)c4ncccc4c3)cc2)CC1` [NCGC00244524-01], for which the “Individual replicates / Log AC50 (M)” value in assay [1] is -5.0486 Log AC50 (M) and -5.0986 Log AC50 (M); in assay [2] (72 h, n = 1), -5.0486 Log AC50 (M). Further, the AC50 is 15.9 µM in assay [1], 15.9 µM in assay [2] (setting [4]) and 1.04e-05 M in assay [3] (setting [5]).
In the case of `CCN(CCN(C)C)C(=O)c1cc(OCc2ccc(Cl)cc2C)n(-c2cc(C#N)ccn2)n1` [NCGC00493248-01], the “Individual replicates / Log AC50 (M)” value in assay [1] was -5.0486 Log AC50 (M) and -5.0986 Log AC50 (M); in assay [2] (72 h, n = 1), -4.9486 Log AC50 (M) and -4.8486 Log AC50 (M). In addition, the results for the AC50 in assay [1], in assay [2] (setting [4]) and in assay [3] (setting [5]) were 15.9 µM, 11.3 µM and 1.04e-05 M, respectively.
Take `C=C[S+](=O)([O-])N1CCCN(c2cc(N(CCC(=O)O)[S+](=O)([O-])C=C)nc(-c3ccccn3)n2)CC1` [NCGC00420875-01]: the figures for the AC50 in assay [1], in assay [2] (setting [4]) and in assay [3] (setting [5]) were 11.3 µM, 15.9 µM and 1.53e-05 M, respectively.
For the compound `Cc1cccc(C)c1Nc1c(-c2ccccn2)nc2ccc(Cl)cn12` [NCGC00106608-03], the “Individual replicates / Log AC50 (M)” value in assay [1] is -4.7986 Log AC50 (M) and -4.9486 Log AC50 (M); in assay [2] (72 h; n = 1), -4.7986 Log AC50 (M). For the same compound, the AC50 in assay [1] was 15.9 µM; in assay [2] (setting [4]), 15.9 µM; in assay [3] (setting [5]) it was 1.42e-05 M.
As to `COc1cccc(NCc2ccc(O)c3ncccc23)n1` [NCGC00241024-01], the “Individual replicates / Log AC50 (M)” value in assay [1] was -4.8986 Log AC50 (M) and -5.0486 Log AC50 (M); in assay [2] (72 h, n = 1), -4.8486 Log AC50 (M). Moreover, the AC50 in assay [1] is 12.6 µM; in assay [2] (setting [4]) it was 12.6 µM; in assay [3] (setting [5]), 1.13e-05 M.
With `Oc1ccc(COCc2ccccc2)c2cccnc12` [MLS000034722-02], the “Individual replicates / Log AC50 (M)” value is recorded as -4.8986 Log AC50 (M) in assay [1] and -4.8486 Log AC50 (M) in assay [2] (72 h; n = 1). Also, the results for the AC50 in assay [1], in assay [2] (setting [4]) and in assay [3] (setting [5]) were 8.94 µM, 14.2 µM and 1.13e-05 M, respectively.
For `COc1ccc(-c2c(-c3cc([N+](=O)[O-])ccn3)ncn2C)cc1` [NCGC00414991-01], the AC50 in assay [1] was 14.2 µM; in assay [2] (setting [4]), 8.94 µM; in assay [3] (setting [5]) it was 1.22e-05 M. For the same compound, in assay [2] (72 h, n = 1), the “Individual replicates / Log AC50 (M)” value is -4.7986 Log AC50 (M).
On to `CCOC(=O)c1ccc(O)c2ncc(N3CCNCC3)cc12` [NCGC00241046-01], for which the “Individual replicates / Log AC50 (M)” value in assay [1] is -5.2986 Log AC50 (M) and -5.0986 Log AC50 (M); in assay [2] (72 h, n = 1), -5.3486 Log AC50 (M). The AC50 is 5.03 µM in assay [1], 5.03 µM in assay [2] (setting [4]) and 5.86e-06 M in assay [3] (setting [5]).
As to `O=C(NCc1cccnc1)c1cccc(-c2cc(O)c3ncccc3c2)c1` [NCGC00244537-01], the “Individual replicates / Log AC50 (M)” value in assay [1] is reported as -4.7986 Log AC50 (M); in assay [2] (72 h, n = 1) it was -4.8486 Log AC50 (M). Also, the AC50 in assay [1] was 7.97 µM; in assay [2] (setting [4]), 8.94 µM; in assay [3] (setting [5]), 1.31e-05 M.
Consider `CN(C)c1cnc2c(O)ccc([S+](=O)([O-])Nc3ccccc3F)c2c1` [NCGC00189501-01], for which the “Individual replicates / Log AC50 (M)” value was -5.0986 Log AC50 (M) in assay [1]; -4.9986 Log AC50 (M) and -4.7986 Log AC50 (M) in assay [2] (72 h, n = 1). Besides, the results for the AC50 in assay [1], in assay [2] (setting [4]) and in assay [3] (setting [5]) were 12.6 µM, 14.2 µM and 9.29e-06 M, respectively.
Consider `CN(Cc1ccco1)Cc1ccc(O)c2ncccc12` [NCGC00183374-01], for which the AC50 in assay [1] was 8.94 µM; in assay [2] (setting [4]), 12.6 µM; in assay [3] (setting [5]), 1.47e-05 M. Also, the “Individual replicates / Log AC50 (M)” value in assay [2] (72 h, n = 1) is on record as -4.7986 Log AC50 (M).
